In PMC9266368, “Synthesis and Biological Evaluation of Small Molecules as Potential Anticancer Multitarget Agents” (International Journal of Molecular Sciences, 2022):

Legend:
[1] = system: HEK-293 (human embryonic kidney cells); experiment: MTT cell viability assay, HEK-293; type: cell-based; conditions: HEK293, 48 h, 2 days incubation, non-tumor cell line, average ±SD of three experiments
Procedure: (§1) The effects of triazole derivatives 1–26 on the cell viability were determined by MTT assay, and the IC50 values were determined toward the human tumor cell lines HT-29 (colon adenocarcinoma), A-549 (lung adenocarcinoma), and MCF-7 (breast adenocarcinoma), as well as toward the non-tumor cell line HEK-293 (human embryonic kidney cells).
(§2) In 96-well plates, 3 × 10^3 (A549 and HEK-293) or 5 × 10^3 (HT-29, MCF-7) cells per well were incubated with serial dilutions of the tested compounds in a total volume of 100 μL of their growth media. The 3-(4,5-dimethylthiazol-2-yl)-2,5-diphenyltetrazolium bromide (MTT; Sigma Chemical Co.) dye reduction assay in 96-well microplates was used. After 2 days of incubation (37 °C, 5% CO2 in a humid atmosphere), 10 μL of MTT (5 mg/mL in phosphate-buffered saline, PBS) was added to each well, and the plate was incubated for a further 3 h (37 °C). After that, the supernatant was discarded and replaced by 100 µL of DMSO to dissolve formazan crystals. The absorbance was then read at 550 nm by spectro-photometry. For all concentrations of compound, cell viability was expressed as the percentage of the ratio between the mean absorbance of treated cells and the mean absorbance of untreated cells. Three independent experiments were performed, and the IC50 values (i.e., concentration half inhibiting cell proliferation) were graphically determined by using GraphPad Prism 4 software (2019).

membrane PD-L1 (mPD-L1) = target: T1, membrane PD-L1 (mPD-L1) (Homo sapiens, UniProt Q9NZQ7); experiment: Membrane PD-L1 relative quantification by flow cytometry; type: cell-based; conditions: 24 h, 100 or 10 μM (Table 7), percentage referred to DMSO control
T1 construct: endogenous in cells; host or cells: HT-29, A-549, MCF-7
Procedure: Based on antiproliferative activity of synthetized derivatives, we decided to study the effect of the amino derivatives 14–26 on the expression of both membrane targets PD-L1 and VEGFR-2 (mPD-L1 and mVEGFR-2). The evaluation was performed on three cancer cell lines (HT-29, A-549, and MCF-7) by flow cytometry after 24 h of treatment with the corresponding compounds. Compounds were used at a 100 or 10 μM concentration depending on their IC50 value (see Table 1 in Materials and Methods section). The presence of both targets in the membrane was relatively determined by using DMSO-treated cells as a negative control.
(§3) To study the effect of the compounds on every biological target in cancer cell lines the compounds were used at a 100 or 10 μM dose, depending on their IC50 and the treated cell line.
(§4) For the assay, 10^5 cells per well were incubated for 24 h with the corresponding dose of the tested compound in a total volume of 500 μL of their growth media.
To detect membrane PD-L1 and VEGFR-2, after the cell treatments, they were collected, fixed with 4% in PBS paraformaldehyde, and stained with FITC Mouse monoclonal Anti-Human VEGFR-2 (ab184903) and Alexa Fluor® 647 Rabbit monoclonal Anti-PD-L1 (ab215251).

total PD-L1 (tPD-L1) = target: T2, total PD-L1 (tPD-L1) (Homo sapiens, UniProt Q9NZQ7); experiment: Total PD-L1 relative quantification by flow cytometry; type: cell-based; conditions: for tPD-L1 relative detection, A-549 / tPD-L1 relative detection, HT-29 / tPD-L1 relative detection, MCF-7: 24 h, 100 or 10 μM (Table 7), relative to DMSO control
T2 construct: endogenous in cells; host or cells: HT-29, A-549, MCF-7
Procedure: (§5) The study was carried out again on HT-29, A-549, and MCF-7 cell lines by flow cytometry after 24 h of treatment with the corresponding compounds. The presence of the targets in the whole cell were relatively determined by using DMSO-treated cells as a negative control and BMS-8 as a positive one for PD-L1 (Table 3).
as §3, §4
(§6) For the detection of total PD-L1, VEGFR-2, and c-Myc, the procedure was the same as for membrane targets, but after fixation, a treatment with 0,5% in PBS TritonTM X-100 was performed. The antibodies used for PD-L1 and VEGFR-2 were the ones previously described, and for the detection of c-Myc, it was FITC Rabbit monoclonal anti-c-Myc (ab223913).

[2] = target: T3, membrane VEGFR-2 (mVEGFR-2) (Homo sapiens, UniProt P35968); experiment: Membrane VEGFR-2 relative quantification by flow cytometry; type: cell-based; conditions: 24 h, 100 or 10 μM (Table 7), sorafenib 10 μM, percentage referred to DMSO control
T3 construct: endogenous in cells; host or cells: HT-29, A-549, MCF-7
Procedure: The presence of both targets in the membrane was relatively determined by using DMSO-treated cells as a negative control.
as §4

[3] = system: MCF-7 (breast adenocarcinoma); experiment: MTT cell viability assay, MCF-7; type: cell-based; conditions: Homo sapiens, MCF7, 48 h, 2 days incubation, average ±SD of three experiments
Procedure: as §1, §2

[4] = system: A-549 (lung adenocarcinoma); experiment: MTT cell viability assay, A-549; type: cell-based; conditions: Homo sapiens, A549, 48 h, 2 days incubation, average ±SD of three experiments
Procedure: as §1, §2

c-Myc = c-Myc relative quantification by flow cytometry; type: cell-based, human; conditions: for c-Myc relative detection, A-549 / c-Myc relative detection, HT-29 / c-Myc relative detection, MCF-7: 24 h, 100 or 10 μM (Table 7), relative to DMSO control
Procedure: as §5, §3, §4, §6

[5] = system: HT-29 (colon adenocarcinoma); experiment: MTT cell viability assay, HT-29; type: cell-based; conditions: Homo sapiens, HT-29, 48 h, 2 days incubation, average ±SD of three experiments
Procedure: as §1, §2

[6] = HT-29, compared to non-treated cells

T3 sequence (P35968 20-1356): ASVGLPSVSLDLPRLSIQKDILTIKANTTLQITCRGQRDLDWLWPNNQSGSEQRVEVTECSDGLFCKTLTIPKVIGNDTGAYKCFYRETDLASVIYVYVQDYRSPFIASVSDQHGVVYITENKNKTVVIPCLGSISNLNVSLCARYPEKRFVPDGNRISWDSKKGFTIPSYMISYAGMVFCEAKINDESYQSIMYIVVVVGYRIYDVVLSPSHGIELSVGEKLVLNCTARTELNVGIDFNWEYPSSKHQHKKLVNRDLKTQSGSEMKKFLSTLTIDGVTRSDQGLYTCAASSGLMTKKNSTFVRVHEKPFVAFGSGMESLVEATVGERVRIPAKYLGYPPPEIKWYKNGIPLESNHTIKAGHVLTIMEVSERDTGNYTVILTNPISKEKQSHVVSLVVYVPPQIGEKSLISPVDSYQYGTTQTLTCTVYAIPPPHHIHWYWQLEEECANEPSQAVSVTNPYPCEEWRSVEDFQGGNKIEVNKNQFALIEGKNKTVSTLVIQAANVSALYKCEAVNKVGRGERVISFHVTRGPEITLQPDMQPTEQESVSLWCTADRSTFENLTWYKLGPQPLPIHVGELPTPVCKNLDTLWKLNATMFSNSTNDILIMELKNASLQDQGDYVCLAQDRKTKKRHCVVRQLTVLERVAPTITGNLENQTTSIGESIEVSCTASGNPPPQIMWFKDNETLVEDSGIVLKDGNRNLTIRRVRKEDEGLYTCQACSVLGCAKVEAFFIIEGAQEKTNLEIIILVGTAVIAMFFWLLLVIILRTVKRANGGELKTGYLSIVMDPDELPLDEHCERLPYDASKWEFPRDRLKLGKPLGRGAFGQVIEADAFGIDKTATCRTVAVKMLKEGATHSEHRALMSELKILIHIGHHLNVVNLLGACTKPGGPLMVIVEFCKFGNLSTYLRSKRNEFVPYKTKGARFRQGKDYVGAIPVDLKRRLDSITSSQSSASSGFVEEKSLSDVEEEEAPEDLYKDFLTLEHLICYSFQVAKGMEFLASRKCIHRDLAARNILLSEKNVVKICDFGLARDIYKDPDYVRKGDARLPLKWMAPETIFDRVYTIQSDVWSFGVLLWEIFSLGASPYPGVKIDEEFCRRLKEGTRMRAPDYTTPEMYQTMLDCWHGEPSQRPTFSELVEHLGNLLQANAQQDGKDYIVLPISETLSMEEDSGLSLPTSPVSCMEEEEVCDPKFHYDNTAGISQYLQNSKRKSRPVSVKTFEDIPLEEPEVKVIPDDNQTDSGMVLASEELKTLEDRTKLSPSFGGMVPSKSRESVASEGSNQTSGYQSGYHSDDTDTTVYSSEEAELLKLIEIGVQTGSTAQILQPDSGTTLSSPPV
T1 sequence (Q9NZQ7 19-290): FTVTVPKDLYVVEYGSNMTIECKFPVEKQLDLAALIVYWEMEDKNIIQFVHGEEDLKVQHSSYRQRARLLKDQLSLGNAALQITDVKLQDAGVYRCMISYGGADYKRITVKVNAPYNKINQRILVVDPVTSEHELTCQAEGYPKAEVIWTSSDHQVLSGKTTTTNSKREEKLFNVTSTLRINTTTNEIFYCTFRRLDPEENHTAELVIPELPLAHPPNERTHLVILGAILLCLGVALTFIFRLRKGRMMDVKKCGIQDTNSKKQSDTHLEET
T2 sequence (Q9NZQ7 19-290): as above

| SMILES | IC50 [1] | melting point | mPD-L1 relative detection, A-549 (membrane PD-L1 (mPD-L1)) | mPD-L1 relative detection, HT-29 (membrane PD-L1 (mPD-L1)) | mPD-L1 relative detection, MCF-7 (membrane PD-L1 (mPD-L1)) | tPD-L1 relative detection, A-549 (total PD-L1 (tPD-L1)) | Inhibition of total PD-L1, A-549 (total PD-L1 (tPD-L1); compared to non-treated cells) | tPD-L1 relative detection, HT-29 (total PD-L1 (tPD-L1); HT-29) | tPD-L1 relative detection, MCF-7 (total PD-L1 (tPD-L1)) | mVEGFR-2 relative detection, A-549 [2] | mVEGFR-2 relative detection, HT-29 [2] | mVEGFR-2 relative detection, MCF-7 [2] | IC50 [3] | IC50 [4] | c-Myc relative detection, A-549 (c-Myc; A-549) | c-Myc relative detection, HT-29 (c-Myc; HT-29) | c-Myc relative detection, MCF-7 (c-Myc; MCF-7) | IC50 [5] | other results |
| --- | --- | --- | --- | --- | --- | --- | --- | --- | --- | --- | --- | --- | --- | --- | --- | --- | --- | --- | --- |
| Cc1ccc(Cn2cc(-c3ccc(N)cc3)nn2)cc1 [Compound 17, 4-(1-(4-methylbenzyl)-1H-1,2,3-triazol-4-yl)aniline] | 4 ± 2 µM | 130 to 132 °C | 88 ± 21% | 87 ± 14% | 89 ± 5% | 56 ± 19% | ~50% | >100% | >100% | >100% | 81 ± 1% | >100% | 4 ± 1 µM | 1.7 µM | >100% | >100% | 63 ± 2% | 8 ± 2 µM |  |
| COc1ccccc1Cn1cc(-c2ccc(N)cc2)nn1 [Compound 18, 4-(1-(2-methoxybenzyl)-1H-1,2,3-triazol-4-yl)aniline] | > 100 µM | 166 to 167 °C | 89 ± 9% | 61 ± 22% | 81 ± 2% | 91 ± 4% |  | 70 ± 11% | >100% | >100% | 93 ± 1% | >100% | > 100 µM | > 100 µM | >100% | >100% | 53 ± 3% | > 100 µM |  |
| COc1cccc(Cn2cc(-c3ccc(N)cc3)nn2)c1 [Compound 19, 4-(1-(3-methoxybenzyl)-1H-1,2,3-triazol-4-yl)aniline] | > 100 µM | 103 to 105 °C | >100% | >100% | 96 ± 5% | >100% |  | 85 ± 17% | >100% | >100% | 94 ± 1% | >100% | 12 ± 5 µM | > 100 µM | >100% | >100% | 55 ± 5% | > 100 µM |  |
| COc1ccc(Cn2cc(-c3ccc(N)cc3)nn2)cc1 [Compound 20, 4-(1-(4-methoxybenzyl)-1H-1,2,3-triazol-4-yl)aniline] | > 100 µM | 132 to 134 °C | 95 ± 8% | >100% | 91 ± 9% | 54 ± 6% | ~50% | 67 ± 3% | >100% | >100% | 92 ± 14% | >100% | 6 ± 4 µM | > 100 µM | 69 ± 9% | 74 ± 23% | 62 ± 7% | > 100 µM | Inhibition/downregulation of total PD-L1, HT-29 (total PD-L1 (tPD-L1); [6]): around 35%; Inhibition of c-Myc, A-549 (c-Myc; A-549, compared to non-treated cells): around 30%; Inhibition of c-Myc, HT-29 (c-Myc; [6]): around 30%; Inhibition of c-Myc, MCF-7 (c-Myc; MCF-7): around 30% |
| Nc1ccc(-c2cn(Cc3ccccc3Br)nn2)cc1 [Compound 24, 4-(1-(2-bromobenzyl)-1H-1,2,3-triazol-4-yl)aniline] | > 100 µM | 133 to 134 °C | 88 ± 12% | 86 ± 11% | 91 ± 10% | 56 ± 7% | ~50% | 45 ± 3% | >100% | >100% | 84 ± 8% | >100% | 5 ± 1 µM | 0.45 µM | >100% | >100% | 57 ± 8% | 3.7 µM |  |
